In patent publication US12590108B2, “Boracic acid compound” (Phaeno Therapeutics Co., Ltd, priority 2020, dated 2026):

How the values were obtained:
[1] = system: Klebsiella pneumoniae ATCC BAA-1705; assay: Mouse lung infection model, bacterial load; assay type: in vivo, CD-1 female mice; details: endpoint 12 h
Procedure: 36 CD-1 female mice were divided into 12 cages with 3 […] in each cage. The day of infection was denoted as day 0.
Immunosuppressant cyclophosphamide at 150 mg/kg was injected intraperitoneally on day −4 and immunosuppressant cyclophosphamide at 100 mg/kg was injected intraperitoneally on day −1 to induce immunodeficient mice.
On day −1, the strain Klebsiella pneumoniae ATCC BAA-1705 was resuscitated on an MHA plate. Resuscitated colonies were picked and dissolved in sterile physiological saline to prepare a bacterial solution with a concentration of 2.75E+08 CFU/mL for lung infection by nasal drip. The initial time of infection was denoted as 0 h, and 50 μL of the bacterial solution was injected into each mouse by nasal drip at 0 h, that is, the inoculation amount was 1.38E+07 CFU/mouse. 2 h after infection, dosing was performed according to the experimental scheme. The specific experimental scheme was as follows (see Table 6): • (1) 2 h after infection: for the 1st cage of mice, at the endpoint, lung tissue was taken and placed in 10 mL of sterile physiological saline, the tissue was homogenized by a homogenizer, and the homogenate was diluted in a gradient and spotted in a plate, with two replicates for each mouse. • (2) 2 h after infection: the 2nd to 12th cages were respectively treated at 10 mL/kg by volume according to the body weight of the mice, the 2nd cage of mice were given a vehicle by intravenous injection every 2 h, and the endpoint was 12 h; the 3rd cage of mice were given 100 mg/kg of meropenem by intravenous injection every 2 h, and the endpoint was 12 h; the 4th cage of mice were given 100 mg/kg of meropenem and 20 mg/kg of QPX7728 by intravenous injection every 2 h, and the endpoint was 12 h; the 5th cage of mice were given 100 mg/kg of meropenem and 100 mg/kg of compound 15 by intravenous injection every 2 h, and the endpoint was 12 h; the 6th cage of mice were given 100 mg/kg of meropenem and 20 mg/kg of compound 15 by intravenous injection every 2 h, and the endpoint was 12 h; the 7th cage of mice were given 100 mg/kg of meropenem and 4 mg/kg of compound 15 by intravenous injection every 2 h, and the endpoint was 12 h; the 8th cage of mice were given 100 mg/kg of cefepime by intravenous injection every 2 h, and the endpoint was 12 h; the 9th cage of mice were given 100 mg/kg of cefepime and 20 mg/kg of QPX7728 by intravenous injection every 2 h, and the endpoint was 12 h; the 10th cage of mice were given 100 mg/kg of cefepime and 100 mg/kg of compound 15 by intravenous injection every 2 h, and the endpoint was 12 h: the 11th cage of mice were given 100 mg/kg of cefepime and 20 mg/kg of compound 15 by intravenous injection every 2 h, and the endpoint was 12 h; and the 12th cage of mice were given 100 mg/kg of cefepime and 4 mg/kg of compound 15 by intravenous injection every 2 h, and the endpoint was 12 h. At the endpoint, lung tissue was taken and placed in 10 mL of sterile physiological saline, the tissue was homogenized by a homogenizer, and the homogenate was diluted in a gradient and spotted in a plate, with two replicates for each mouse. The bacterial load in the lung tissue of the mice was counted, and the experiment was summarized as follows (see Table 7): […]

[2] = system: Escherichia coli ARLG-2829 (NDM-5, OXA-1); assay: MIC shift, liquid microdilution, test compound fixed at 8 μg/mL; assay type: cell-based
Procedure: (§1) Preparation of compound mother plate: On the day of the experiment, the compound to be tested (the final concentration was 0.3125 to 20 μg/mL) and meropenem (the final concentration ranged from 1 to 64 μg/mL) were dissolved in a corresponding solvent (sterile ddH2O or DMSO) to form 100× mother liquors with the highest test concentration, and the compound to be tested and meropenem were then subjected to 2-fold series gradient dilution in a V-bottom 96-well plate to obtain 100× working solutions with the final concentration.
(§2) Preparation of inoculation solution: Fresh bacterial clones were picked from an overnight Mueller Hinton II Agar medium (MHA, Cat. No. 211438, BD BBLTM) plate, suspended in sterilized physiological saline, and adjusted to a concentration of 1×10^8 CFU/mL, and the suspension was further diluted to 5-10^5 CFU/mL with Cation-Adjusted Mueller Hinton II Broth (MHB, Catalog #212332, BD BBLTM).
(§3) Detection of minimum inhibitory concentration (MIC): 1 μL of the compound to be tested and the meropenem working solution were transferred to the corresponding wells to be tested in a round-bottomed 96-well plate (Catalog #3788, Corning), and 98 μL of the inoculation solution was added to the round-bottomed 96-well plate containing drugs, which was an MIC test plate; and after the plate was inverted and cultured at 37° C. for 20-24 h, the MIC value was read, and the minimum inhibitory concentration for inhibiting bacterial growth was defined as MIC.
(§4) The test compound was tested for minimum inhibitory concentration against 5 strains of Klebsiella pneumoniae ATCC BAA-1705 (KPC-2), ATCC BAA-2470 (NDM-1), ARLG-1196 (CTM-1 group, SHA NDM, TEM), NCTC 13440 (VIM-1), and NCTC 13439 (VIM), and one strain of Escherichia coli ARLG-2829 (NDM-5, OXA-1). According to the requirements of the Institute of Clinical And Laboratory Standard (CLSI), the minimum inhibitory concentration (MIC) of each drug combination was determined by liquid microdilution method under the premise of fixing the concentration of the compound to be tested at 8 μg/mL. The test method was the same as above, and the concentration of meropenem ranged from 0.125 to 8 μg/mL.

[3] = system: Klebsiella pneumoniae ARLG-1196 (CTM-1 group, SHA NDM, TEM); assay: as above; assay type: cell-based; details: meropenem alone, K. pneumoniae ARLG-1196
Procedure: as §1, §2, §3, §4

[4] = system: Klebsiella pneumoniae ATCC BAA-1705 (KPC-2); assay: as above; assay type: cell-based; details: ATCCBAA1705, meropenem alone, K. pneumoniae ATCC BAA-1705
Procedure: as §1, §2, §3, §4

[5] = system: Klebsiella pneumoniae ATCC BAA-2470 (NDM-1); assay: as above; assay type: cell-based; details: ATCCBAA2470
Procedure: as §1, §2, §3, §4

[6] = system: Klebsiella pneumoniae NCTC 13439 (VIM); assay: as above; assay type: cell-based; details: NCTC13439, meropenem alone, K. pneumoniae NCTC 13439
Procedure: as §1, §2, §3, §4

[7] = system: Klebsiella pneumoniae NCTC 13440 (VIM-1); assay: as above; assay type: cell-based; details: NCTC13440, meropenem alone, K. pneumoniae NCTC 13440
Procedure: as §1, §2, §3, §4

| Compound | Average CFU in mice (lung tissue) ([1]; cefepime 100 mg/kg + inhibitor 4 mg/kg i.v. q2h) | Average CFU in mice (lung tissue) ([1]; cefepime 100 mg/kg + inhibitor 20 mg/kg i.v. q2h) | Average CFU in mice (lung tissue) ([1]; cefepime 100 mg/kg + inhibitor 100 mg/kg i.v. q2h) | Average CFU in mice (lung tissue) ([1]; meropenem 100 mg/kg + inhibitor 4 mg/kg i.v. q2h) | Average CFU in mice (lung tissue) ([1]; meropenem 100 mg/kg + inhibitor 20 mg/kg i.v. q2h) | Average CFU in mice (lung tissue) ([1]; meropenem 100 mg/kg + inhibitor 100 mg/kg i.v. q2h) | MIC [2] | MIC [3] | MIC [4] | MIC [5] | MIC [6] | MIC [7] | Average CFU in mice (lung tissue) ([1]; antibiotic alone 100 mg/kg i.v. q2h) |
| --- | --- | --- | --- | --- | --- | --- | --- | --- | --- | --- | --- | --- | --- |
| CCOc1ccc2c(c1C(=O)O)O[B-](O)(O)CO2 [Compound 15] | 2.38E+06 CFU/mouse | 3.73E+05 CFU/mouse | 1.84E+05 CFU/mouse | 6.83E+07 CFU/mouse | 6.04E+06 CFU/mouse | 7.67E+05 CFU/mouse |  |  |  |  |  |  |  |
| C[C@@H](O)[C@H]1C(=O)N2C(C(=O)O)=C(S[C@@H]3CN[C@H](C(=O)N(C)C)C3)[C@H](C)[C@H]12 [Meropenem, meropenem, reference compound] |  |  |  |  |  |  | 128 µg/mL | 64 µg/mL | 32 µg/mL | 128 µg/mL | 4 µg/mL | 16 µg/mL | 2.73E+08 CFU/mouse |
